The values below are quoted from earlier work in PubChem BioAssay AID1259409 (Chemical Carcinogenesis Research Information System (CCRIS), 2018).

Molecules are shown by their SMILES.

In the data set the test system is rodent chemically induced tumor inhibition, incidence and multiplicity. Description: CCRIS tumor inhibitor studies. The following applies: Carcinogen: AZOXYMETHANE, 25843-45-2, Dose [Inhibitor]: 0, Route [Inhibitor]: ORAL, Species: RAT, Strain/Sex: F344/MALE, Promoter: NONE USED.

`CN1C(C(=O)Nc2ccccn2)=C(O)c2ccccc2S1(=O)=O`: the “tumour outcome (control, treated, inhibition, significance)” value is given as 11/30 (37%), 9/30 (30%), 19%, not calculated (150 PPM IN DIET BEGINNING 1 WK POST CARCINOGEN DOSE FOR DURATION OF STUDY (STUDY DURATION: 56 WK), Target Tissue: Type of Lesion: COLON: ADENOMA, Dose [Carcinogen]: 29.6 MG/KG IN NORMAL SALINE ONCE); 10/30 (33%), 8/30 (27%), 20%, not calculated (150 PPM IN DIET BEGINNING 1 WK POST CARCINOGEN DOSE FOR DURATION OF STUDY (STUDY DURATION: 56 WK), Target Tissue: Type of Lesion: SMALL INTESTINE: ADENOCARCINOMA, Dose [Carcinogen]: 29.6 MG/KG IN NORMAL SALINE ONCE); 1/30 (3%), 1/30 (3%), 0%, not calculated (150 PPM IN DIET BEGINNING 1 WK POST CARCINOGEN DOSE FOR DURATION OF STUDY (STUDY DURATION: 56 WK), Target Tissue: Type of Lesion: SMALL INTESTINE: ADENOMA, Dose [Carcinogen]: 29.6 MG/KG IN NORMAL SALINE ONCE); 77%, 33%, 57%, p<0.05 (150 PPM IN DIET FOR 29 WK BEGINNING 1 WK POST CARCINOGEN TREATMENT (STUDY DURATION: 32 WK), Target Tissue: Type of Lesion: COLON: ADENOMA, Dose [Carcinogen]: 15 MG/KG BW 1/WK FOR 2 WK); 53%, 23%, 57%, p<0.05 (150 PPM IN DIET FOR 29 WK BEGINNING 1 WK POST CARCINOGEN TREATMENT (STUDY DURATION: 32 WK), Target Tissue: Type of Lesion: COLON: CARCINOMA, Dose [Carcinogen]: 15 MG/KG BW 1/WK FOR 2 WK); 58%, 33%, 43%, p<0.05 (200 PPM IN DIET BEGINNING 1 WK PRIOR TO CARCINOGEN TREATMENT FOR DURATION OF STUDY (STUDY DURATION: 54 WK), Target Tissue: Type of Lesion: COLON: ADENOCARCINOMA, Dose [Carcinogen]: 15 MG/KG/BW 1/WK FOR 2 WK). The “tumour outcome (control, treated, inhibition, significance)” value reads like this: (200 PPM IN DIET BEGINNING 1 WK PRIOR TO CARCINOGEN TREATMENT FOR DURATION OF STUDY (STUDY DURATION: 54 WK), Target Tissue: Type of Lesion: COLON: ADENOMA., Dose [Carcinogen]: 15 MG/KG/BW 1/WK FOR 2 WK) 6%, 8%, -33%, not calculated; (200 PPM IN DIET BEGINNING PRIOR TO CARCINOGEN DOSE AND CONTINUING FOR DURATION OF STUDY (STUDY DURATION: 54 WK), Target Tissue: Type of Lesion: COLON: ADENOCARCINOMA, Dose [Carcinogen]: 15 MG/KG 1/WK FOR 2 WK) 72%, 33%, 54%, p<0.001; (200 PPM IN DIET BEGINNING PRIOR TO CARCINOGEN DOSE AND CONTINUING FOR DURATION OF STUDY (STUDY DURATION: 54 WK), Target Tissue: Type of Lesion: COLON: ADENOMA, Dose [Carcinogen]: 15 MG/KG 1/WK FOR 2 WK) 14%, 3%, 79%, not calculated; (200 PPM IN DIET BEGINNING PRIOR TO CARCINOGEN DOSE AND CONTINUING FOR DURATION OF STUDY (STUDY DURATION: 54 WK), Target Tissue: Type of Lesion: SMALL INTESTINE: ADENOCARCINOMA, Dose [Carcinogen]: 15 MG/KG 1/WK FOR 2 WK) 50%, 17%, 66%, p<0.01; (200 PPM IN DIET BEGINNING PRIOR TO CARCINOGEN DOSE AND CONTINUING FOR DURATION OF STUDY (STUDY DURATION: 54 WK), Target Tissue: Type of Lesion: SMALL INTESTINE: ADENOMA, Dose [Carcinogen]: 15 MG/KG 1/WK FOR 2 WK) 3%, 0%, 100%, not calculated; (200 PPM IN DIET FOR 56 WK BEGINNING 2 WK PRIOR TO CARCINOGEN TREATMENT (STUDY DURATION: 56 WK), Target Tissue: Type of Lesion: COLON(DISTAL): TUMOR, Dose [Carcinogen]: 15 MG/KG 1/WK FOR 2 WK) 52%, 35%, 33%, p<0.05. Also, the “tumour outcome (control, treated, inhibition, significance)” value by setting is: (200 PPM IN DIET FOR 56 WK BEGINNING 2 WK PRIOR TO CARCINOGEN TREATMENT (STUDY DURATION: 56 WK), Target Tissue: Type of Lesion: COLON(PROXIMAL): TUMOR, Dose [Carcinogen]: 15 MG/KG 1/WK FOR 2 WK) 38%, 15%, 61%, p<0.01; (200 PPM IN DIET FOR 56 WK BEGINNING 2 WK PRIOR TO CARCINOGEN TREATMENT (STUDY DURATION: 56 WK), Target Tissue: Type of Lesion: SMALL INTESTINE(DISTAL): TUMOR, Dose [Carcinogen]: 15 MG/KG 1/WK FOR 2 WK) 12%, 6%, 50%, not significant; (200 PPM IN DIET FOR 56 WK BEGINNING 2 WK PRIOR TO CARCINOGEN TREATMENT (STUDY DURATION: 56 WK), Target Tissue: Type of Lesion: SMALL INTESTINE(PROXIMAL): TUMOR, Dose [Carcinogen]: 15 MG/KG 1/WK FOR 2 WK) 33%, 11%, 67%, p<0.05.
